Experimental data reported in patent publication US7855292B2, “Sulfonamide compounds” (Janssen Pharmaceutica NV, priority 2004, dated 2010).

How the values were obtained:
CCK-1 receptor = biological target: T1, CCK-1 receptor (Homo sapiens, UniProt P32238); assay: CCK1 binding assay ([125I]-BH-CCK-8S displacement, CHO-K1 membranes); settings: membranes of CHO-K1 cells stably transfected with the CCK-1 receptor, 20 pM [125I]-BH-CCK-8S, 0.3 μM PD-134,308 present, 60 min at 21±3° C.; for Ki: read-out: CCK1 pKi (converted)
T1 construct: expressed in transfected cells; host or cells: CHO-K1
T1 sequence (P32238 1-428): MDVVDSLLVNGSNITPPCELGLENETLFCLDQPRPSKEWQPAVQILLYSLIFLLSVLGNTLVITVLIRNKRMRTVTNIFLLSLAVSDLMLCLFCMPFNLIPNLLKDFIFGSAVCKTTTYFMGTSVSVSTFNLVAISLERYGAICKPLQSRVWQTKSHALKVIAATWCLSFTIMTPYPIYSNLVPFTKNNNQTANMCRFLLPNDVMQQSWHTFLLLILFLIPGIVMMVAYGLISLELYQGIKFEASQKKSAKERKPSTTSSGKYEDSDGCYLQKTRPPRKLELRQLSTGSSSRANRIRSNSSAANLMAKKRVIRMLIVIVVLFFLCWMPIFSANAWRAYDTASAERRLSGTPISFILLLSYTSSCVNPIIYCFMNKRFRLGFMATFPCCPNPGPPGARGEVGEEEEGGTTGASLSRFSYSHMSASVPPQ
Method: 1. CCK1 Assay Development and Data Generation
CHO-K1 cells that had undergone stable transfection with the CCK-1 receptor were grown in DMEM supplemented with L-glutamine (2 mM), penicillin (50 units/mL) and streptomycin (50 μg/mL). Cells were cultured under continuous G418 selection (2 mM) and were harvested using a rubber cell scraper. CHO-K1 cells were sub-cultured a maximum of ten times before being reseeded from the original stocks.
Membranes were prepared from the stably transfected CHO-K1 cells. Frozen cell pellets (−40° C.) were thawed in 14 mL of buffer A (10 mM HEPES, 130 mM NaCl, 4.7 mM KCl, 5 mM MgCl, 1 mM EGTA and 15.4 mg/100 mL bacitracin at pH 7.2), adapted from Harper et al. (Br. J. Pharmacol. 1996, 118:1717-1726). The thawed pellets were homogenized using a Polytron PT-10 (7×1 s). The homogenates were centrifuged for 5 min at 1500 rpm (600×g), and the resulting pellets were discarded. The supernatants were re-centrifuged in order to collect the receptor-membrane pellets (25 min 15,000 rpm; 39,800×g), which were re-suspended in buffer A.
All assays were conducted in 96-well plates (GF/B millipore filter plates) using buffer A, with 0.3 μM PD-134,308, for the dilutions. The CCK-2 receptor ligand was included to eliminate the contribution of this receptor subtype to the binding. For the optimal cell number determination experiments 20 pM [^125I]-BH-CCK-8S (50 μL […] solution) was incubated with a range of cell concentrations ([…] to 12.5×10^5 cells/well) in a total volume of 150 μL. Total binding of [^125I]-BH-CCK-8S was determined in the presence of 15 μL of buffer A. Non-specific binding of [^125I]-BH-CCK-8S was determined in the presence of 15 μL of 100 μM 2-naphthalenesulphonyl L-aspartyl-(2-phenethyl)amide (2-NAP: see R. A. Hull et al. Br. J. Pharmacol. 1993, 108:734-740), a CCK-1 receptor selective antagonist that is structurally unrelated to the radioligand [^125I]-BH-CCK-8S. The assay preparation was incubated for 1 h at 21±3° C., and then the assay was terminated upon rapid filtration of the preparation under reduced pressure. The loaded filters were washed three times using undiluted PBS ([…]), and then the residues were transferred to 5 mL scintillation tubes. Bound radioactivity was determined using a gamma counter (count time=1 min). […] To validate the radioligand concentration and incubation time for the assay, saturation and kinetic binding studies were also conducted (see M. F. Morton, The Pharmacological Characterization of Cholecystokinin Receptors in the Human Gastrointestinal Tract. PhD Thesis, University of London, 2000). […] The assay was then terminated according to the procedure outlined above.
(§1) 3. Data Analysis for CCK1 and CCK2 Binding Assays
The pKi values were determined using the equation of Y.-C. Cheng and W. H. Prusoff (Biochem. Pharmacol., 1973, 22(23):3099-3108):
(§2) [formula] To circumvent problems associated with computer-assisted data analysis of compounds with low affinity, the data obtained in the current study were weighted according to a method described by Morton. In brief, 100% and 0% specific binding were defined independently using total binding and binding obtained in the presence of a high concentration of the reference antagonist, 2-NAP.

CCK2 receptor = biological target: T2, CCK2 receptor (Homo sapiens, UniProt P32239); assay: CCK2 binding assay ([125I]-BH-CCK-8S displacement, HEKZFP membranes); settings: membranes of doxycycline-induced HEKZFP cells, 20 pM [125I]-BH-CCK-8S, 60 min at 21±3° C.; for Ki: read-out: CCK2 pKi (converted)
T2 construct: analyzed for ZFP expression as well as CCK2R induction upon addition of doxycycline to the culture medium; endogenous in cells
T2 sequence (P32239 1-447): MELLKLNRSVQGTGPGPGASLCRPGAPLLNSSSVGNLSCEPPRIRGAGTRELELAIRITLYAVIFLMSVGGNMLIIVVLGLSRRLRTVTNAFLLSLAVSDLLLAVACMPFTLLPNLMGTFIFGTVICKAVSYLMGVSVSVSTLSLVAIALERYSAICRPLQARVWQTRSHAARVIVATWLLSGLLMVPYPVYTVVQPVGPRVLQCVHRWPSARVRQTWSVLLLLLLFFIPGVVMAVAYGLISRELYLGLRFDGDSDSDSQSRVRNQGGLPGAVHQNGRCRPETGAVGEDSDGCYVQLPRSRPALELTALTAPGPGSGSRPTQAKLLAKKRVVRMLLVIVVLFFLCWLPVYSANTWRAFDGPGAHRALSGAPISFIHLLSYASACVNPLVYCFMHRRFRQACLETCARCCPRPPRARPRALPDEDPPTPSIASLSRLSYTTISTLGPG
Method: 2. CCK2 Assay Development and Data Generation
Zinc Finger Proteins (ZFP) specific for the CCK2R gene were identified by Sangamo Biosciences. The ZFP domain was fused with the herpes simplex virus VP16 activation domain, and the fusion protein was subsequently cloned into the pcDNA3 mammalian expression vector (Invitrogen, San Diego, Calif.). […] After 2 weeks of selection in culture medium containing […] Zeocin (Invitrogen), sixty drug-resistant stable clones were isolated and analyzed for ZFP expression as well as CCK2R induction upon addition of doxycycline to the culture medium.
HEKZFP cells were grown in DMEM supplemented with L-glutamine (2 mM), penicillin (50 units/mL) and streptomycin (50 μg/mL) and 10% FBS (v/v).
Membranes were prepared from the HEKZFP cells after induction. […] The thawed pellets were homogenized using a Polytron PT-10 (7×1 s). The homogenates were centrifuged for 5 min at 1500 rpm (600×g), and the resulting pellets were discarded. The supernatants were re-centrifuged in order to collect the receptor-membrane pellets (25 min 15,000 rpm; 39,800×g), which were re-suspended in buffer A.
The assay preparation was incubated for 1 h at 21±3° C., and then the assay was terminated by rapid filtration of the preparation under reduced pressure. The loaded filters were washed three times using undiluted PBS (100 μL), and then 100 μL of scintillation fluid was added to the filter plate. Bound radioactivity was determined using a Topcount (Packard BioScience, Meriden, Conn.) with a count time of 1 min. […] To validate the radioligand concentration and incubation time for the assay, saturation and kinetic binding studies were also conducted (see M. F. Morton, The Pharmacological Characterization of Cholecystokinin Receptors in the Human Gastrointestinal Tract. PhD Thesis, University of London, 2000). […] The assay was then terminated according to the procedure outlined above.
as §1
The pKi values were determined using the equation of Y.-C.
as §2

Ki (CCK-1 receptor) [nM]	Ki (CCK2 receptor) [nM]	CCK1 pKi (CCK-1 receptor)	CCK2 pKi (CCK2 receptor)	SMILES
1580	63.1	–	–	O=C(N[C@H](Cc1ccc(Cl)cc1Cl)C(=O)O)c1ccc(Cl)cc1NS(=O)(=O)c1c(F)cccc1F [Example 46, 2-[4-Chloro-2-(2,6-difluoro-benzenesulfonylamino)-benzoylamino]-3-(2,4-dichloro-phenyl)-propionic acid]
100	631	–	–	O=C(N[C@@H](Cc1ccc(Cl)c(Cl)c1)C(=O)NCc1cccc(Cl)c1)c1ccc(Cl)cc1NS(=O)(=O)c1cccc2nsnc12 [Example 128, (S)-2-(Benzo[1,2,5]thiadiazole-4-sulfonylamino)-4-chloro-N-[1-(3-chloro-benzylcarbamoyl)-2-(3,4-dichloro-phenyl)-ethyl]-benzamide]
39.8	316	–	–	COC(=O)[C@H](Cc1ccc(Cl)c(I)c1)NC(=O)c1ccc(I)cc1NS(=O)(=O)c1cccc2nsnc12 [Example 136, (S)-2-[2-(Benzo[1,2,5]thiadiazole-4-sulfonylamino)-4-iodo-benzoylamino]-3-(4-chloro-3-iodo-phenyl)-propionic acid methyl ester]
–	–	6.7	7.4	O=C(N[C@@H](Cc1ccc(Cl)c(Br)c1)C(=O)O)c1ccc(Cl)cc1NS(=O)(=O)c1cccc2nsnc12 [Example 145, (S)-2-[2-(Benzo[1,2,5]thiadiazole-4-sulfonylamino)-4-chloro-benzoylamino]-3-(3-bromo-4-chloro-phenyl)-propionic acid]
–	794	5.4	–	CC(C)(c1ccc(Cl)cc1)[C@H](NC(=O)c1ccc(Cl)cc1NS(=O)(=O)c1cccc2nsnc12)C(=O)O [Example 107, (S)-2-[2-(Benzo[1,2,5]thiadiazole-4-sulfonylamino)-4-chloro-benzoylamino]-3-(4-chloro-phenyl)-3-methyl-butyric acid]
39.8	200	–	–	O=C(N[C@H](Cc1ccc(Cl)cc1)C(=O)O)c1ccc(I)cc1NS(=O)(=O)c1cccc2nccnc12 [Example 15, (R)-3-(4-Chloro-phenyl)-2-[4-iodo-2-(quinoxaline-5-sulfonylamino)-benzoylamino]-propionic acid]
100	50.1	–	–	O=C(N[C@@H](Cc1ccc(Cl)c(I)c1)C(=O)O)c1ccc(I)cc1NS(=O)(=O)c1cccc2nccnc12 [Example 138, (S)-3-(4-Chloro-3-iodo-phenyl)-2-[4-iodo-2-(quinoxaline-5-sulfonylamino)-benzoylamino]-propionic acid]
398	31.6	–	–	O=C(N[C@@H](Cc1ccc(Cl)cc1Cl)C(=O)O)c1ccc(I)cc1NS(=O)(=O)c1cccc2nsnc12 [Example 133, (S)-2-[2-(Benzo[1,2,5]thiadiazole-4-sulfonylamino)-4-iodo-benzoylamino]-3-(2,4-dichloro-phenyl)-propionic acid]
7940	63.1	–	–	O=C(O)C[C@H](Cc1ccc(Cl)cc1)NC(=O)c1ccc(Cl)cc1NS(=O)(=O)c1cccc2nccnc12 [Example 89, (S)-4-(4-Chloro-phenyl)-3-[4-chloro-2-(quinoxaline-5-sulfonylamino)-benzoylamino]-butyric acid]
79.4	794	–	–	C[C@@H](NC(=O)c1ccc(I)cc1NS(=O)(=O)c1cccc2nsnc12)[C@@H](O)c1ccc(Cl)cc1 [Example 99, 2-(Benzo[1,2,5]thiadiazole-4-sulfonylamino)-N-[(2S,1R)-2-(4-chloro-phenyl)-2-hydroxy-1-methyl-ethyl]-4-iodo-benzamide]
79.4	15.8	–	–	O=C(N[C@@H](Cc1ccc(Cl)c(Br)c1)C(=O)O)c1ccc(I)cc1NS(=O)(=O)c1cccc2nsnc12 [Example 91, (S)-2-[2-(Benzo[1,2,5]thiadiazole-4-sulfonylamino)-4-iodo-benzoylamino]-3-(3-bromo-4-chloro-phenyl)-propionic acid]
63.1	7940	–	–	COC(=O)[C@@H](Cc1ccc(Cl)cc1)NC(=O)c1ccc(Cl)cc1NS(=O)(=O)c1ccc(F)cc1F [Example 69, (R)-2-[4-Chloro-2-(2,4-difluoro-benzenesulfonylamino)-benzoylamino]-3-(4-chloro-phenyl)-propionic acid methyl ester]
126	251	–	–	CC(CNC(=O)c1ccc(Cl)cc1NS(=O)(=O)c1c(F)cccc1F)c1ccc(Cl)cc1Cl (stereo not shown) [Example 43, 4-Chloro-N-[2-(2,4-dichloro-phenyl)-propyl]-2-(2,6-difluoro-benzenesulfonylamino)-benzamide]
794	7940	–	–	O=C(O)C[C@@H](Cc1ccc(Cl)c(Cl)c1)NC(=O)c1ccc(Cl)cc1NS(=O)(=O)c1cccc2nccnc12 [Example 82, (R)-3-[4-Chloro-2-(quinoxaline-5-sulfonylamino)-benzoylamino]-4-(3,4-dichloro-phenyl)-butyric acid]
